The text below walks through data of patent US4492711A, “Benzamides, their salts, and pharmaceutical compositions containing them” (SANOFI, priority 1982, dated 1985).

The target of test [1] is T1, gastric histamine H2 receptors (Rattus norvegicus, UniProt P25102).
T1 construct: the gastric secretion is measured by perfusion of a physiological solution at a constant speed in the stomach of the animal; from tissue; host or cells: stomach of the living atropinized rat (in vivo, perfused stomach)
Description: Antagonism of gastric hypersecretion induced by histamine in the atropinized rat (Ghosh and Schild modified according to Black et al.). The class given is in vivo. To be noted: intravenous; for Relative potency (cimetidine = 1): ID50-based, compared to cimetidine; for ED50: single dose, histamine i.v. infusion 15 mcmol/kg/hour, read-out: ID50 (dose which inhibits by 50% the gastric hypersecretion induced by histamine). As for the experimental part:
According to this test, a gastric acid hypersecretion is induced by intravenous infusion of a sub-maximal dose of histamine equivalent to 15 mcmol/kg/hour and the gastric secretion is measured by perfusion of a physiological solution at a constant speed in the stomach of the animal.
The ID50 represents the index of the gastric H2 -blocking action.

The subject of test [2] is hypersecretion induced by dimaprit. Description: Antisecretory activity in the cat bearing a gastric fistula, dimaprit-induced hypersecretion (Emas et al.). Format: in vivo. To be noted: cat with gastric fistula, intragastric. From the text:
The antisecretoy activity of the products of the present invention has been evaluated in the cat bearing a gastric fistula according to the method of Emas et al (Gastroenterology, 1960, 39, 771) by using, as hypersecretory agent, dimaprit at the dose of 640 mcg/kg/k.

In test [3] the test system is gastric acid secretion. The following applies: as oxalate; cited from earlier work.

T1 sequence (P25102 whole entry, the tested form may be a part): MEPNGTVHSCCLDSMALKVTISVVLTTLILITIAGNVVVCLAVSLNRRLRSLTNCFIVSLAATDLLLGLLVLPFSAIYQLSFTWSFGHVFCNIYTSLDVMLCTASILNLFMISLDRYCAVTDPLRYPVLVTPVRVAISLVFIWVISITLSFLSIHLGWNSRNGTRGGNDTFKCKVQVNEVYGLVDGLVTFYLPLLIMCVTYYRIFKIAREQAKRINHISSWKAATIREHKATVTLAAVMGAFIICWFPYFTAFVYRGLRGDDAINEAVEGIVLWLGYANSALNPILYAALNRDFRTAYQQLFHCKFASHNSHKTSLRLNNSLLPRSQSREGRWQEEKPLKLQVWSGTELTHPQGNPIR

In the case of `CNC(=C[N+](=O)[O-])NCCSCc1ccc(CN(C)C)o1` [Ranitidine, N-[2-[[5-[(dimethylamino)methyl]furfuryl]thio]ethyl]-N'-methyl-2-nitro-1,1-ethenediamine, reference compound], in test [1], the “Relative potency (cimetidine = 1)” value amounted to 3.80.

On to `CNC(=C[N+](=O)[O-])Nc1cccc(C(=O)NCCSCc2ccc(CN(C)C)o2)c1` [SR 58028 A, 3-[N-(1-methylamino-2-nitroethenyl)amino]-N-[2-(5-dimethylaminomethylfuran-2-ylmethylthio)ethyl]benzamide], for which, in test [1], the “Relative potency (cimetidine = 1)” value was determined as 4.13 and the ED50 came out at 0.23 µmol/kg.

Regarding `CNC(=O)Nc1cccc(C(=O)NCCSCc2ccc(CN(C)C)o2)c1` [SR 57934, 3-(3-methylureido)-N-[2-(5-dimethylaminomethylfuran-2-ylmethylthio)ethyl]benzamide], in test [1], the “Relative potency (cimetidine = 1)” value was determined as 0.62 and the ED50 turned out to be 1.53 µmol/kg.

Take `CNC(=S)Nc1cccc(C(=O)NCCSCc2ccc(CN(C)C)o2)c1` [SR 57914, 3-(3-methylthioureido)-N-[2-(5-dimethylaminomethylfuran-2-ylmethylthio)ethyl]benzamide]: in test [1], the “Relative potency (cimetidine = 1)” value is given as 2.11 and the ED50 is 0.45 µmol/kg. In test [2] (an hour before dimaprit perfusion (640 mcg/kg/k)), the “antagonism of the hypersecretion induced by dimaprit” value is “antagonizes in dose depending way the hypersecretion induced by dimaprit”. Further, the “activity relative to cimetidine against hypersecretion induced by dimaprit” value in test [2] (an hour before dimaprit perfusion, cimetidine as reference) is “at least equal to that of cimetidine”.

Take `CNC(=NC#N)Nc1cccc(C(=O)NCCSCc2ccc(CN(C)C)o2)c1` [SR 57970, 3-(2-cyano-3-methylguanidino)-N-[2-(5-dimethylaminomethylfuran-2-ylmethylthio)ethyl]benzamide]: in test [1], the “Relative potency (cimetidine = 1)” value is 1.90 and the ED50 came to 0.5 µmol/kg.

Regarding `CN(C)Cc1ccc(CSCCNC(=O)c2ccc(S(N)(=O)=O)cc2)o1` [Compound A, N-[2-(5-dimethylaminomethylfuran-2-ylmethylthio)ethyl]4-sulfamoylbenzamide, reference compound], the “Relative potency (cimetidine = 1)” value in test [1] was 0.42. For the same compound, the “ED50, gastric acid secretion inhibiting activity in the rat” value in test [3] is 2.54 mg/kg.
